The target in one experiment is NS3/NS4 complexes (Hepatitis C virus genotype 1a, UniProt P27958). The experiment in a line: NS3/NS4 inhibition assay (IC50). Conditions: NS3/NS4 activity; 23° C., 25 μM NS4A peptide. The class given is biochemical. A digest of the protocol: (§1)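 Enzyme IC50: NS3/NS4 complex, 23° C.; buffer Tris-HCl 50 mM pH 7.5 / glycerol 15% / DTT 10 mM / LDAO 0.6 mM / NS4A peptide 25 μM. Cellular: HCV replicon EC50.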

The test system of the next experiment is hepatitis C replicon. The experiment in a line: hepatitis C replicon EC50 assay. It is filed as cell-based. Conditions: Hepatitis C virus. The procedure, abridged: as §1
(In general: A replicon is a self-replicating genome or part of one, used to study replication in cells.)

Where [1] appears, read: hepatitis C replicon, read-out: EC50.

The structures appear in SMILES notation. Where two headings read alike, the source gives them in different places.

The results in this text go back to US20110081315A1, “NOVEL MACROCYCLIC INHIBITORS OF HEPATITIS C VIRUS REPLICATION” (INTERMUNE, INC., priority 2009, published 2011).

NS3/NS4 complexes, sequence (P27958 1027-1657, one chain of several): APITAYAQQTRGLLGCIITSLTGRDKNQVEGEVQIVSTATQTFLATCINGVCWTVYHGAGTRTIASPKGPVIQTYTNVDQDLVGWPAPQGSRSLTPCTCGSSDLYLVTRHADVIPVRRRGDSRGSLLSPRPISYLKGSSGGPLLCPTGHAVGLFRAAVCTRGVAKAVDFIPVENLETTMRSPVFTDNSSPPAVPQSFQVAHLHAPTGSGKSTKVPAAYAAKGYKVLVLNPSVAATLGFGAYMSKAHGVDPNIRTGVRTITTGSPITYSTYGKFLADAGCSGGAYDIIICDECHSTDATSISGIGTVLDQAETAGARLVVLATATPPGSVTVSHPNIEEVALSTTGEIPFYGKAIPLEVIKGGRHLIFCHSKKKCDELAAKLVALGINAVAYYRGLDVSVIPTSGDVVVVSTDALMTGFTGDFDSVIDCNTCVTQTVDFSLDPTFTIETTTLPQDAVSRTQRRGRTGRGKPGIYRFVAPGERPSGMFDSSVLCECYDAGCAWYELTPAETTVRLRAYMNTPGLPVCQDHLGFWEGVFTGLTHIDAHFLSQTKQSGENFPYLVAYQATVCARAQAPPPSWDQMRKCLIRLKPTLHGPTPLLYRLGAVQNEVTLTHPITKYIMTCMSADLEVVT

Turning to `CCc1cccc2c1nc(O[C@@H]1C[C@H]3C(=O)N[C@]4(C(=O)NS(=O)(=O)N(C)C)C[C@H]4/C=C\CCCCC[C@H](NC(=O)OC(C)(C)C)C(=O)N3C1)n2C(C)C` [Compound 266], the IC50 against NS3/NS4 complexes was less than 0.01 µM. In the experiment with hepatitis C replicon (setting [1]), the 50% effective concentration (EC50) was less than 0.01 µM.
On to `CNC(=O)Nc1cccc2c1nc(O[C@@H]1C[C@H]3C(=O)N[C@]4(C(=O)NS(=O)(=O)N(C)C)C[C@H]4/C=C\CCCCC[C@H](NC(=O)OC(C)(C)C)C(=O)N3C1)n2C(C)C` [Compound 1426], for which, on NS3/NS4 complexes, the IC50 is less than 0.01 µM. For the same compound, the EC50 with hepatitis C replicon (setting [1]) lay within 0.01 to 0.1 µM.
The matching figures for `CC(C)n1c(O[C@@H]2C[C@H]3C(=O)N[C@]4(C(=O)NS(=O)(=O)N(C)C)C[C@H]4/C=C\CCCCC[C@H](NC(=O)OC(C)(C)C)C(=O)N3C2)nc2c(-c3nc(-c4cccnc4)cs3)cccc21` [Compound 1736]: less than 0.01 µM and less than 0.01 µM.
The matching figures for `COc1cnc(O[C@@H]2C[C@H]3C(=O)N[C@]4(C(=O)NS(=O)(=O)C5(C)CC5)C[C@H]4/C=C\CCCCC[C@H](Nc4cccc(F)c4)C(=O)N3C2)c2cc(Cl)ccc12` [Compound 1101]: less than 0.01 µM and less than 0.01 µM.
On NS3/NS4 complexes, `CC(C)n1c(O[C@@H]2C[C@H]3C(=O)N[C@]4(C(=O)NS(=O)(=O)C5(C)CC5)C[C@H]4/C=C\CCCCC[C@H](Nc4ccccc4)C(=O)N3C2)nc2c(-c3cccc(OC(F)(F)F)c3)cccc21` [Compound 247] came in with an IC50 of less than 0.01 µM. In addition, in the experiment with hepatitis C replicon (setting [1]), the EC50 was greater than 0.1 µM.
The matching figures for `COc1ccc(-c2cccc3c2nc(O[C@@H]2C[C@H]4C(=O)N[C@]5(C(=O)NS(=O)(=O)N(C)C)C[C@H]5/C=C\CCCCC[C@H](NC(=O)OC(C)(C)C)C(=O)N4C2)n3C(C)C)cn1` [Compound 1739]: less than 0.01 µM and 0.01 to 0.1 µM.
The like results for `Cc1cc(-c2nc(C(C)C)cs2)c2nc(O[C@@H]3C[C@H]4C(=O)N[C@]5(C(=O)NS(=O)(=O)N(C)C)C[C@H]5/C=C\CCCCC[C@H](NC(=O)OC(C)(C)C)C(=O)N4C3)n(C(C)C)c2c1` [Compound 1436] were, in that order, less than 0.01 µM and 0.01 to 0.1 µM.
The matching figures for `COc1ccc2c(O[C@@H]3C[C@H]4C(=O)N[C@]5(C(=O)NS(=O)(=O)C6(C)CC6)C[C@H]5/C=C\CCCCC[C@H](Nc5cccc(C(=O)N6CCN(C(=O)c7ccco7)CC6)c5)C(=O)N4C3)cc(-c3nc(C(C)C)cs3)nc2c1C` [Compound 121]: less than 0.01 µM and 0.01 to 0.1 µM.
At NS3/NS4 complexes, `COc1ccc2c(O[C@@H]3C[C@H]4C(=O)N[C@]5(C(=O)NS(=O)(=O)C6(C)CC6)C[C@H]5/C=C\CCCCC[C@H](Nc5cccc(C(=O)N6CCN(C(c7ccccc7)c7ccccc7)CC6)c5)C(=O)N4C3)cc(-c3nc(C(C)C)cs3)nc2c1C` [Compound 114] returned an IC50 of less than 0.01 µM. For the same compound, the EC50 with hepatitis C replicon (setting [1]) is less than 0.01 µM.
In turn, `CC(C)n1c(O[C@@H]2C[C@H]3C(=O)N[C@]4(C(=O)NS(=O)(=O)C5CC5)C[C@H]4/C=C\CCCCC[C@H](NC(=O)OC(C)(C)C)C(=O)N3C2)nc2c(-c3cncs3)cccc21` [Compound 223] came in with an IC50 at NS3/NS4 complexes of less than 0.01 µM. In addition, the EC50 with hepatitis C replicon (setting [1]) was less than 0.01 µM.
With `CC(C)c1nc(-c2cccc3c2nc(O[C@@H]2C[C@H]4C(=O)N[C@]5(C(=O)NS(=O)(=O)N(C)C)C[C@H]5/C=C\CCCCC[C@H](NC(=O)OC(C)(C)C)C(=O)N4C2)n3C(C)C)sc1C(C)C` [Compound 1201], on NS3/NS4 complexes, the IC50 was less than 0.01 µM. Further, in the experiment on hepatitis C replicon (setting [1]), the EC50 is greater than 0.1 µM.
Compound `CC(C)n1c(O[C@@H]2C[C@H]3C(=O)N[C@]4(C(=O)NS(=O)(=O)C5(C)CC5)C[C@H]4/C=C\CCCCC[C@H](Nc4ccccc4)C(=O)N3C2)nc2c(C(=O)NCCc3ccccc3)cccc21` [Compound 275] displayed an IC50 at NS3/NS4 complexes of less than 0.01 µM. The EC50 in the experiment with hepatitis C replicon (setting [1]) fell in the range of 0.01 to 0.1 µM.
As to `Cc1sc(-c2cccc3c2nc(O[C@@H]2C[C@H]4C(=O)N[C@]5(C(=O)NS(=O)(=O)C6(C)CC6)C[C@H]5/C=C\CCCCC[C@H](NC(=O)OC(C)(C)C)C(=O)N4C2)n3C(C)C)nc1Cc1ccccc1` [Compound 1217], on NS3/NS4 complexes, the half-inhibitory concentration (IC50) was less than 0.01 µM. For the same compound, in the experiment on hepatitis C replicon (setting [1]), the EC50 is less than 0.01 µM.
In the case of `CC(C)n1c(O[C@@H]2C[C@H]3C(=O)N[C@]4(C(=O)NS(=O)(=O)C5(C)CC5)C[C@H]4/C=C\CCCCC[C@H](NC(=O)OC(C)(C)C)C(=O)N3C2)nc2c(-c3ncco3)cccc21` [Compound 235], the IC50 against NS3/NS4 complexes is less than 0.01 µM. For the same compound, the EC50 with hepatitis C replicon (setting [1]) is less than 0.01 µM.
For `Cc1nc2cc(O[C@@H]3C[C@H]4C(=O)N[C@]5(C(=O)NS(=O)(=O)C6(C)CC6)C[C@H]5/C=C\CCCCC[C@H](Nc5ccccc5)C(=O)N4C3)ccc2o1` [Compound 1252], at NS3/NS4 complexes, the IC50 is less than 0.01 µM. The EC50 in the experiment with hepatitis C replicon (setting [1]) was in the range of 0.01 to 0.1 µM.
For the compound `COc1ccc2c(O[C@@H]3C[C@H]4C(=O)N[C@]5(C(=O)NS(=O)(=O)C6(C)CC6)C[C@H]5/C=C\CCCCC[C@H](Nc5cccc(C(=O)N6CCN(c7cccc(C(F)(F)F)c7)CC6)c5)C(=O)N4C3)cc(-c3nc(C(C)C)cs3)nc2c1C` [Compound 124], on NS3/NS4 complexes, the IC50 is less than 0.01 µM. The EC50 with hepatitis C replicon (setting [1]) was 0.01 to 0.1 µM.
Compound `CCCc1nc(-c2cccc3c2nc(O[C@@H]2C[C@H]4C(=O)N[C@]5(C(=O)NS(=O)(=O)C6(C)CC6)C[C@H]5/C=C\CCCCC[C@H](NC(=O)OC(C)(C)C)C(=O)N4C2)n3C(C)C)sc1C` [Compound 1210] came in with an IC50 against NS3/NS4 complexes of less than 0.01 µM. Also, the EC50 with hepatitis C replicon (setting [1]) was less than 0.01 µM.
On to `CC(C)c1nc2ccccc2nc1O[C@@H]1C[C@H]2C(=O)N[C@]3(C(=O)NS(=O)(=O)C4(C)CC4)C[C@H]3/C=C\CCCCC[C@H](Nc3ccccc3)C(=O)N2C1` [Compound 311], for which the IC50 against NS3/NS4 complexes was less than 0.01 µM. Also, in the experiment on hepatitis C replicon (setting [1]), the EC50 fell in the range of 0.01 to 0.1 µM.
The like results for `CC(C)n1c(O[C@@H]2C[C@H]3C(=O)N[C@]4(C(=O)NS(=O)(=O)N(C)C)C[C@H]4/C=C\CCCCC[C@H](NC(=O)OC(C)(C)C)C(=O)N3C2)nc2c(-c3cnc(N4CCOCC4)cn3)cccc21` [Compound 1744] were, in that order, less than 0.01 µM and less than 0.01 µM.
In the case of `COc1ccc2c(O[C@@H]3C[C@H]4C(=O)N[C@]5(C(=O)NS(=O)(=O)C6(C)CC6)C[C@H]5/C=C\CCCCC[C@H](Nc5cccc(N)c5)C(=O)N4C3)cc(-c3nc(C(C)C)cs3)nc2c1C` [Compound 102], the IC50 against NS3/NS4 complexes is less than 0.01 µM. The same compound came in with an EC50 with hepatitis C replicon of less than 0.01 µM.
`CC(C)n1c(O[C@@H]2C[C@H]3C(=O)N[C@]4(C(=O)NS(=O)(=O)C5(C)CC5)C[C@H]4/C=C\CCCCC[C@H](Nc4ccccc4)C(=O)N3C2)nc2c(-c3cccc(C#N)c3)cccc21` [Compound 241]: the IC50 against NS3/NS4 complexes is less than 0.01 µM. Moreover, in the experiment with hepatitis C replicon (setting [1]), the EC50 was 0.01 to 0.1 µM.
The like results for `COc1ccc2c(O[C@@H]3C[C@H]4C(=O)N[C@]5(C(=O)NS(=O)(=O)C6(C)CC6)C[C@H]5/C=C\CCCCC[C@H](Nc5cccc(F)c5)C(=O)N4C3)nc(-c3nc(C(C)C)cs3)cc2c1C` [Compound 1005] were, in that order, less than 0.01 µM and greater than 0.1 µM.
`CC(C)n1c(O[C@@H]2C[C@H]3C(=O)N[C@]4(C(=O)NS(=O)(=O)C5(C)CC5)C[C@H]4/C=C\CCCCC[C@H](Nc4ccccc4)C(=O)N3C2)nc2c(N)cccc21` [Compound 1408]: the IC50 at NS3/NS4 complexes is less than 0.01 µM. The EC50 in the experiment with hepatitis C replicon (setting [1]) was 0.01 to 0.1 µM.
`CC1(S(=O)(=O)NC(=O)[C@@]23C[C@H]2/C=C\CCCCC[C@H](Nc2cccc(F)c2)C(=O)N2C[C@H](O)C[C@H]2C(=O)N3)CC1` [Compound 1003]: on NS3/NS4 complexes, the IC50 is greater than 0.1 µM. Besides, in the experiment on hepatitis C replicon (setting [1]), the EC50 was in the range of 0.01 to 0.1 µM.
The matching figures for `CC(C)n1c(O[C@@H]2C[C@H]3C(=O)N[C@]4(C(=O)NS(=O)(=O)C5(C)CC5)C[C@H]4/C=C\CCCCC[C@H](NC(=O)OC(C)(C)C)C(=O)N3C2)nc2c(-c3nc(Cc4cccc(Cl)c4)cs3)cccc21` [Compound 1724]: less than 0.01 µM and 0.01 to 0.1 µM.

In general, IC50 refers to the point on the concentration scale where inhibition reaches its midpoint. Usually EC50 stands for the concentration that produces a half-maximal response.
